# Measurements reported in ChEMBL document CHEMBL1221387, “Prenylflavonoids from Glycyrrhiza uralensis and their protein tyrosine phosphatase-1B inhibitory activities” (Bioorg Med Chem Lett, 2010).
# Activity calls are given as the source filed them. No cut-off for these calls is given here.
# Target: T1, Tyrosine-protein phosphatase non-receptor type 1 (Homo sapiens) (UniProt P18031)
# T1 sequence (whole entry): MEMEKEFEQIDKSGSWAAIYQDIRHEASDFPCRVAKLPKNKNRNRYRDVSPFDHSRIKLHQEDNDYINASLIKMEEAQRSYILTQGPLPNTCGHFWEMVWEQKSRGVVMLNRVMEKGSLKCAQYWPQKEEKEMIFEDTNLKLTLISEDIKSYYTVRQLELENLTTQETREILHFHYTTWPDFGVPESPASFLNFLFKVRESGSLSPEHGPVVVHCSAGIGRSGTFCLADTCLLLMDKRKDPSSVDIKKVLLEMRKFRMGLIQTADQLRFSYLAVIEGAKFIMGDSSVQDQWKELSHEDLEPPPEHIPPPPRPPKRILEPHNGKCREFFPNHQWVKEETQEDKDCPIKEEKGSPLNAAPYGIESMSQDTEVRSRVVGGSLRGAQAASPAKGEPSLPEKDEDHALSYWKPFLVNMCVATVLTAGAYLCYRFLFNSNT
# Assay: Mixed type inhibition of human recombinant PTP1B at 30 uM by Lineweaver-Burke plot analysis
smiles,measurement,value
COc1cc(O)cc2occ(-c3cc(O)c(O)c(CC=C(C)C)c3)c(=O)c12,inhibition,Active
